Test results as given in publication PMC11076555, “Dishevelled2 activates WGEF via its interaction with a unique internal peptide motif of the GEF” (Communications Biology, 2024).

Key:
[1] = biological target: T1, Dvl2^PDZ (PDZ domain of human Dishevelled2) (Homo sapiens, UniProt O14641); experiment: Microscale thermophoresis (MST) binding to Dvl2^PDZ; details: compared with wild-type WGEF^pep, triplicates
T1 construct: introducing a stop codon after C354 residue of Dvl2^PDZ to eliminate the fused peptide, cloned at the C-termini of PDZ; 6xHis (N, cleaved yes); host or cells: E. coli Rosetta (DE3)
T1 sequence (O14641 267-339 limits assumed): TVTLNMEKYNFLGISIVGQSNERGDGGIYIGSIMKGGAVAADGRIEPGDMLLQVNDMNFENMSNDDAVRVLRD
Protocol: MST experiments were performed using Monolith NT.115 instrument from Nanotemper technologies. Dvl2^PDZ domain was fluorescently labelled as per the instructions, using Monolith Redmaleimide 2nd generation-cysteine reactive label. The experimental condition consists of 10 mM Tris–HCl pH8, 150 mM NaCl, 2 mM DTT, 5% Glycerol and 0.05% Tween20. For Dvl2^PDZ-peptide affinity determination, synthetic WGEF peptides were serially diluted (1:2) 16 times, starting from an approximate concentration of 3.4 mM. 50 nM of fluorescently labelled Dvl2^PDZ domain was added to the serially diluted peptides, followed by incubation at 25 °C for 30 minutes. Thermophoresis signals were recorded at 20% of excitation power and 40% MST at 25 °C. Data was fitted using the Kd fit model in the MO. Affinity Analysis v2.3 software. Like peptides, hWGEF (330–581) protein was serially diluted to obtain a protein concentration range of 138–0.0042 µM. Experimental conditions were the same as mentioned above for peptides. All MST experiments were done in triplicates.
Guanine nucleotide exchange assays were performed in triplicates. Fluorescence decrease was fitted using a single exponential decay mode in GraphPad Prism. All results are reported with standard deviation (±SD). Statistical significance was calculated using ordinary One-way ANOVA with multiple comparisons. * Represents adjust P value with statistical significance of ****P < 0.0001, ***P < 0.001, **P < 0.01 and […]. MST assays were performed in triplicates. Data was fitted using the Kd fit model in the MO. Affinity Analysis v2.3 software. All results are reported with standard deviation (±SD). MD simulation runs for apo and peptide docked Dvl2^PDZ were performed in triplicates. Plots reported from MD simulation studies are represented with standard deviation (±SD).

[2] = system: Dvl2^PDZ–WGEF interaction; experiment: In vitro guanine nucleotide exchange (GEF) assay, peptide competition with Dvl2^PDZ-activated xWGEF330; type: biochemical, Xenopus laevis (xWGEF), human (hDvl2^PDZ; details: 200 µM peptide, 50 µM Dvl2^PDZ, 5 µM xWGEF330, 2 µM Mant-GDP loaded RhoA, 30 min at 25 °C, fluorescence 360/440 nm, triplicates
Protocol: Guanine nucleotide exchange assays were carried out using RhoA loaded with fluorescently labelled Mant-GDP[63],[64]. Briefly, 150 μM of RhoA was incubated with 5 Molar excess of fluorescent label, i.e., Mant-GDP in a buffer containing 10 mM Tris pH 8, 150 mM NaCl, 2 mM DTT, 5 mM EDTA, 0.5 mM MgCl2 and 5% Glycerol. The reaction was incubated on ice for 30 min, followed by the addition of 10 mM MgCl2 to stop the reaction. Excess Mant-GDP was removed through buffer exchange and Mant-GDP loaded RhoA was concentrated and stored at −80 °C. For assays, 2 μM of Mant-GDP loaded RhoA was incubated with 5 μM of xWGEF in the presence or absence of hDvl2^PDZ (0 μM, 25 μM and 50 μM) for 30 min at 25 °C. […] Once the fluorescence was stable, excess GTP (10x of labelled GTPase) was added to start the exchange reaction. […] A decrease in fluorescence was recorded using a BioTek Cytation5 plate reader with excitation and emission of 360 and 440 nm, respectively. Fluorescence was normalized and decrease was fitted using a single exponential decay mode in GraphPad Prism. […]
Guanine nucleotide exchange assays were performed in triplicates. Fluorescence decrease was fitted using a single exponential decay mode in GraphPad Prism. […]

GSTFSLAQDIP [WGEF^pepW7A, alanine variant of WGEF^pep, …]
Effect of alanine substitution on WGEF^pep–Dvl2^PDZ interaction (in words) [1]: completely abolishes

GSTFSLWQAIP [WGEF^pepD9A, alanine variant of WGEF^pep, …]
Effect of peptide on GEF (nucleotide exchange) activity of Dvl2^PDZ-activated xWGEF330 [2]: decrease in the exchange activity of WGEF, but not to an extent brought out by the wild-type WGEF^pep | Effect of alanine substitution on WGEF^pep–Dvl2^PDZ interaction (in words) [1]: completely abolishes

GSTFSLWQDIA [WGEF^pepP11A, alanine variant of WGEF^pep, …]
Effect of alanine substitution on WGEF^pep–Dvl2^PDZ interaction (in words) [1]: completely abolishes
